Data on four compounds can be found in article PMC11203266, “Continuous evolution of compact protein degradation tags regulated by selective molecular glues” (Science (New York, N.Y.), 2024).

Entries after “also recorded” stand apart in the source; their conditions may differ.

By Kd is commonly meant the constant that tells how readily two partners part at equilibrium. Usually EC50 stands for the midpoint of the concentration-response curve. The low end stands for a more potent agent, the high end for a less potent agent.

Assay [1] deals with T1, DDB1•CRBN (Homo sapiens, UniProt Q96SW2).
T1 construct: made in house
Description: Competitive fluorescence anisotropy (polarization) vs thalidomide-Cy5. Type of assay: binding. As for the experimental part:
Competitive fluorescence polarization experiments were performed according to previously reported methods ([65]). All experiments were performed in 25 mM HEPES, […], 1 mM TCEP, pH 7.4. A pre-complexed sample was prepared by incubating DDB1-CRBN (400 nM) with thalidomide–Cy5 conjugate (fig. S2A) (80 nM) at RT for 30 minutes with gentle shaking (220 rpm). […] Polarization values were measured on an Infinite M1000 Pro microplate reader (Tecan) following 1 hour of incubation at RT with gentle shaking. A total of three independent measurements were acquired and averaged per biological sample to generate the values shown in figure S2C. All mP values were normalized between 0 and 100 using the formula NormalizedmP=[(x−minimum)/[…]]∗100 , where ‘‘x’’ is the mP value of the sample and ‘‘minimum’’ and ‘‘maximum’’ are the minimum and maximum mP values, respectively, across all samples. KD values were estimated from computed Ki-values as previously described ([65]).

Assay [2] concerns degron-tagged eGFP. Put plainly: Degron-tagged eGFP degradation by flow cytometry in HEK293T cells. Type of assay: cell-based, human. In general terms: A flow cytometer gives signals particle by particle.
Assay [3] addresses full-length CRBN (MG-PACE circuit, SD31) (Homo sapiens, UniProt Q96SW2). Description: Two-hybrid luciferase transcriptional activation in PMBN-permeabilized E. coli by compound-induced ternary complex of RR69–human full-length CRBN with ω–degron, about 1 h at 37 °C, four-parameter fit. Type of assay: cell-based, E. coli S2060. The note with it: n = 3. From the text:
(§1) To evolve ZFs that engage PT-179-bound CRBN, we constructed an MG-PACE circuit using the CRBN•IMiD•ZF molecular glue complex. […] We translationally fused CRBN to the DNA-binding protein RR69 and fused SD0 to the RNAP ω-subunit, then measured transcriptional activation by luminescence (Fig. 2A).
(§2) Figure 2. […] (A) Full-length CRBN MG-PACE circuit. (B) CRBNCTD MG-PACE circuit. […] Values and error bars in (C), (E), and (H) represent the mean and standard deviation of three replicates, each normalized to a control treatment with DMSO only. Dashed vertical lines in (D), (F), and (G) represent neutral drift passages.
(§3) Chemically competent S2060 cells were co-transformed with accessory and complementary plasmids (Table S1).

Assay [4] concerns the target full-length CRBN (MG-PACE circuit, SD36) (Homo sapiens, UniProt Q96SW2). Described as above. Conditions: n = 3. Type of assay: cell-based, E. coli S2060.
Excerpt: as §1, §2, §3

In assay [5] the target is full-length CRBN (MG-PACE circuit, SD35) (Homo sapiens, UniProt Q96SW2). Described as above. Type of assay: cell-based, E. coli S2060. The note with it: n = 3.
Assay [6] concerns the target T2, mmCRBN (MG-PACE circuit, SD55) (Mus musculus, UniProt Q8C7D2).
T2 construct: gene Crbn; mouse cereblon in mmCRBN MG-PACE circuit, partner SD55 (evolved ZF degron), in E. coli
Put plainly: Two-hybrid luciferase transcriptional activation in PMBN-permeabilized E. coli by compound-induced ternary complex of mouse CRBN with evolved degron, about 1 h at 37 °C, four-parameter fit. Conditions: n = 3. Type of assay: cell-based, E. coli S2060. From the text:
(§4) Compared to human CRBN, mouse cereblon (mmCRBN) contains a V388I mutation that prevents IMiD-induced recruitment of ZF neosubstrates ([8]). The development of a potent and compact degron that is compatible with mmCRBN would facilitate studies that modulate target protein function in mouse systems. We hypothesized that MG-PACE could evolve degrons that overcome this difference in mmCRBN and respond to PT-179 in mouse cells. We constructed a mmCRBN MG-PACE circuit (Fig. 5A) and performed a total of 205 hours of PACE seeded with SD36-encoding phage (Fig. 5B).
(§5) Figure 5. MG-PACE evolves degrons that engage PT-179-bound mouse CRBN. (A) The mmCRBN MG-PACE circuit. Stringency is increased by expression of a competing ZF degron fused to maltose binding protein (MBP). (B) PACE in the mmCRBN MG-PACE circuit. (C) Mutations in evolved PT-179•mmCRBN-binding degrons. (D) PT-179-induced mmCRBN circuit activation (1 hr) by SD0 and evolved variants. […]
(§6) Chemically competent S2060 cells were co-transformed with accessory and complementary plasmids (Table S1). […] 96-well plates were then incubated in an Infinite M1000 Pro microplate reader (Tecan) at 37 °C with continuous shaking for ~1 hour prior to reading A600 nm and luminescence values. Raw luminescence values were then divided by the corresponding A600 nm values to normalize to cell density.

Assay [7] has as its target T3, mmCRBN (MG-PACE circuit, SD56) (Mus musculus, UniProt Q8C7D2).
T3 construct: gene Crbn; mouse cereblon in mmCRBN MG-PACE circuit, partner SD56 (evolved ZF degron), in E. coli
The description is as above. Type of assay: cell-based, E. coli S2060. Conditions: n = 3.
Excerpt: as §4, §5, §6

In assay [8] the target is FKBP12 and FRB (Homo sapiens, UniProt P42345+P62942). Put plainly: Rapamycin-sensitive MG-PACE circuit, luciferase activation. Type of assay: cell-based, E. coli. Conditions: without PMBN.
Excerpt: as §3

The target in assay [9] is FRB. The note with it: read-out: KD for FRB without FKBP12; cited from earlier work.

On to `O=C1CCC(N2C(=O)c3cc(F)c(N4CCOCC4)cc3C2=O)C(=O)N1` (centres unmarked) [PK-1016], for which the “lower affinity for CRBN than PT-179” value in assay [1] came to 2 fold. For the same compound, the Kd in assay [1] (competition with thalidomide–Cy5, KD estimated from Ki) was 1010 nM. The “PK-1016-induced degradation of SD40-eGFP (in words)” value in assay [2] (HEK293T cells) is listed as “poor activity; also recorded: poor degrader”.
As to `O=C1CCC(N2C(=O)c3ccc(N4CCOCC4)cc3C2=O)C(=O)N1` (centres unmarked) [PT-179, PT-179 (thalidomide derivative with a morpholine at the phthalimide 5-position, without the 4-amino group)], the EC50 in [3] is 3250 nM; in [4], 217 nM; in [5], 557 nM; in assay [6], 1110 nM; in assay [7], 225 nM.
For `N#Cc1ccc(N2CCN(Cc3ccc(COc4cccc5c4CN([C@H]4CCC(=O)NC4=O)C5=O)cc3)CC2)c(F)c1` [mezigdomide, reference compound], the “degradation activity on SD40-tagged eGFP (in words)” value in [2] (fig. S11E) is recorded as “highly potent degradation activity”.
As for `CO[C@H]1C[C@@H]2CC[C@@H](C)[C@@](O)(O2)C(=O)C(=O)N2CCCC[C@H]2C(=O)O[C@H]([C@H](C)C[C@@H]2CC[C@@H](O)[C@H](OC)C2)CC(=O)[C@H](C)/C=C(\C)[C@@H](O)[C@@H](OC)C(=O)[C@H](C)C[C@H](C)/C=C/C=C/C=C/1C` [rapamycin], the “rapamycin concentrations at which luciferase expression was detected” value in assay [8] is above 1 µM. In [9], the Kd is 26000 nM.
